IC50 data for nine molecules are collected here from patent publication US5863917A, “Quinoxaline derivatives useful in therapy” (Pfizer, Inc., priority 1996, dated 1999).

Where only a bound is given, the exact number is not on record here.

This assay concerns the target T1, glycine site of the NMDA receptor (Rattus norvegicus, UniProt P35439).
T1 construct: rat brain membranes; from tissue; host or cells: rat brain membranes
Kind of assay: Binding affinity for the glycine site of the NMDA receptor (test (a)). As to conditions: displacement of a selective glycine site radioligand ([3H]-L-689,560) from rat brain membranes, tris-acetate buffer pH 7.4, 90 minutes. The procedure: (a) Binding affinity for the glycine site of the NMDA receptor
This may be measured by testing a compound's ability to displace a selective glycine site radioligand from rat brain membranes as described in Brit J Pharm (1991), 104, 74. In a variation of this method, thoroughly washed membrane protein is incubated with [^3 H]-L-689,560 for 90 minutes using tris-acetate buffer (pH 7.4). Displacement of the radioligand, using a range of test compound concentrations, is used to derive IC50 (50% inhibitory concentration) values.

What is called IC50 is the concentration that gives 50% inhibition. Low readings indicate higher potency, high ones lower potency. As to `CCOC(=O)CN(c1c(C)c(C)cc2[nH]c(=O)c(=O)[nH]c12)S(C)(=O)=O` [Example 11], the IC50 is less than 0.1 µM.
For `Cn1cnc(S(=O)(=O)NCCN(c2c(Cl)c(Cl)cc3[nH]c(=O)c(=O)[nH]c23)S(C)(=O)=O)c1` [Example 2, N-(1,4-Dihydro-6,7-dichloro-2,3-dioxoquinoxalin-5-yl)-N-(2-(N'-4-(1H-1-methylimidazolyl)sulphonyl)aminoethyl)methanesulphonamide], the IC50 was less than 0.1 µM.
The molecule `CCCOC(=O)CN(c1c(C)c(C)cc2[nH]c(=O)c(=O)[nH]c12)S(C)(=O)=O` [Example 12] had an IC50 of less than 0.1 µM.
Consider `Cc1c(Cl)cc2[nH]c(=O)c(=O)[nH]c2c1N(CC(=O)O)S(C)(=O)=O` [Example 3, N-(Carboxymethyl)-N-(1,4-dihydro-7-chloro-6-methyl-2,3-dioxoquinoxalin-5-yl)methanesulphonamide], for which the IC50 is less than 0.1 µM.
In turn, `Cc1c(Cl)cc2[nH]c(=O)c(=O)[nH]c2c1N(CCNS(=O)(=O)C(F)(F)F)S(C)(=O)=O` [Example 4] gave an IC50 of less than 0.1 µM.
With `CS(=O)(=O)NCCN(c1c(Cl)c(Cl)cc2[nH]c(=O)c(=O)[nH]c12)S(C)(=O)=O` [Example 1, N-(1,4-Dihydro-6,7-dichloro-2,3-dioxoquinoxalin-5-yl)-N-(2-(N'-methanesulphonyl)-aminoethyl)methanesulphonamide] the figure was less than 0.1 µM; with `Cc1cc2[nH]c(=O)c(=O)[nH]c2c(N(CC(=O)O)S(C)(=O)=O)c1Cl` [5 [the (-)-isomer]], less than 0.1 µM; with `Cc1cc2[nH]c(=O)c(=O)[nH]c2c(N(CC(=O)O)S(C)(=O)=O)c1C` [Example 7, N-(Carboxymethyl)-N-(1,4dihydro-6,7-dimethyl-2,3-dioxoquinoxalin-5-yl)methanesulphonamide], less than 0.1 µM.
With `COC(=O)CN(c1c(C)c(C)cc2[nH]c(=O)c(=O)[nH]c12)S(C)(=O)=O` [Example 10], the IC50 is less than 0.1 µM.
